Earlier results in US20260356885A1, “PROCESS FOR MANUFACTURING AN ANTIBIOTIC MACROCYCLIC PEPTIDE” (Hoffmann-La Roche Inc., priority 2022, published 2026).

Tested on: Acinetobacter baumannii
Details: statement in words, as discussed in WO2019206853; no test or value given

## CN1C(=O)[C@H](CCCCN)NC(=O)[C@H](CCCN)NCc2cccnc2Sc2cccc(-c3ccc(C(=O)O)cc3)c2CNC(=O)[C@@H]1Cc1c[nH]c2ccccc12 [compound of formula (I), 4-[(11S,14S,17S)-14-(4-Aminobutyl)-11-(3-aminopropyl)-17-(1H-indol-3-ylmethyl)-16-methyl-12,15,18-trioxo-2-thia-4, 10, 13, 16, 19-pentazatricyclo[19.4.0.03,8]pentacosa-1 (25),3 (8), 4,6,21,23-hexaen-22-yl]benzoic acid]
  antibiotic action, selective against Acinetobacter baumannii: potent antibiotic with selective action against Acinetobacter baumannii
